Experimental data from paper PMC7901646, “Pyrrolo[2′,3′:3,4]cyclohepta[1,2-d][1,2]oxazoles, a New Class of Antimitotic Agents Active against Multiple Malignant Cell Types” (Journal of Medicinal Chemistry, 2020).

Assays:
[1] = test system: NCI-H23; assay: NCI-60 screen; format: cell-based; settings: Homo sapiens, Non-Small-Cell Lung Cancer
Experimental: (§1) All the synthesized compounds 51–76 were tested at a 10^–5 M concentration for their antitumor activity on the full NCI-60 panel comprising cancer cell lines derived from nine human cancer cell types (leukemia, non-small-cell lung, colon, central nervous system, melanoma, ovarian, renal, prostate, and breast).[50]

[2] = test system: T-47D; assay: NCI-60 screen; format: cell-based; settings: Homo sapiens, T47D; Breast Cancer
Experimental: as §1

[3] = test system: NCI-H322M; assay: NCI-60 screen; format: cell-based; settings: Homo sapiens, Non-Small-Cell Lung Cancer
Experimental: as §1

[4] = test system: MALME-3M; assay: NCI-60 screen; format: cell-based; settings: Homo sapiens, Melanoma
Experimental: as §1

[5] = test system: HCT-15; assay: NCI-60 screen; format: cell-based; settings: Homo sapiens, Colon Cancer
Experimental: as §1

[6] = test system: OVCAR-4; assay: NCI-60 screen; format: cell-based; settings: Homo sapiens, Ovarian Cancer
Experimental: as §1

[7] = test system: 786–0; assay: NCI-60 screen; format: cell-based; settings: Homo sapiens, Renal Cancer
Experimental: as §1

[8] = test system: SF-539; assay: NCI-60 screen; format: cell-based; settings: Homo sapiens, CNS Cancer
Experimental: as §1

[9] = test system: OVCAR-8; assay: NCI-60 screen; format: cell-based; settings: Homo sapiens, Ovarian Cancer
Experimental: as §1

[10] = test system: HCC-2998; assay: NCI-60 screen; format: cell-based; settings: Homo sapiens, Colon Cancer
Experimental: as §1

[11] = test system: BT-549; assay: NCI-60 screen; format: cell-based; settings: Homo sapiens, Breast Cancer
Experimental: as §1

[12] = test system: SN12C; assay: NCI-60 screen; format: cell-based; settings: Homo sapiens, Renal Cancer
Experimental: as §1

[13] = test system: SW-620; assay: NCI-60 screen; format: cell-based; settings: Homo sapiens, Colon Cancer
Experimental: as §1

[14] = test system: IGROV1; assay: NCI-60 screen; format: cell-based; settings: Homo sapiens, IGROV-1; Ovarian Cancer
Experimental: as §1

[15] = test system: SF-295; assay: NCI-60 screen; format: cell-based; settings: Homo sapiens, CNS Cancer
Experimental: as §1

[16] = test system: U251; assay: NCI-60 screen; format: cell-based; settings: Homo sapiens, U-251; CNS Cancer
Experimental: as §1

[17] = test system: SNB-75; assay: NCI-60 screen; format: cell-based; settings: Homo sapiens, CNS Cancer
Experimental: as §1

[18] = test system: UO-31; assay: NCI-60 screen; format: cell-based; settings: Homo sapiens, Renal Cancer
Experimental: as §1

[19] = test system: OVCAR-5; assay: NCI-60 screen; format: cell-based; settings: Homo sapiens, Ovarian Cancer
Experimental: as §1

[20] = test system: TK-10; assay: NCI-60 screen; format: cell-based; settings: Homo sapiens, Renal Cancer
Experimental: as §1

[21] = test system: SK-OV-3; assay: NCI-60 screen; format: cell-based; settings: Homo sapiens, Ovarian Cancer
Experimental: as §1

[22] = test system: HOP-92; assay: NCI-60 screen; format: cell-based; settings: Homo sapiens, Non-Small-Cell Lung Cancer
Experimental: as §1

[23] = test system: MDA-MB-468; assay: NCI-60 screen; format: cell-based; settings: Homo sapiens, Breast Cancer
Experimental: as §1

[24] = test system: HL-60(TB); assay: NCI-60 screen; format: cell-based; settings: Homo sapiens, Leukemia
Experimental: as §1

[25] = test system: CAKI-1; assay: NCI-60 screen; format: cell-based; settings: Homo sapiens, Renal Cancer
Experimental: as §1

[26] = test system: HS 578T; assay: NCI-60 screen; format: cell-based; settings: Homo sapiens, Breast Cancer
Experimental: as §1

[27] = test system: HT29; assay: NCI-60 screen; format: cell-based; settings: Homo sapiens, HT-29; Colon Cancer
Experimental: as §1

[28] = test system: HOP-62; assay: NCI-60 screen; format: cell-based; settings: Homo sapiens, Non-Small-Cell Lung Cancer
Experimental: as §1

[29] = test system: SK-MEL-28; assay: NCI-60 screen; format: cell-based; settings: Homo sapiens, Melanoma
Experimental: as §1

[30] = test system: RPMI-8226; assay: NCI-60 screen; format: cell-based; settings: Homo sapiens, Leukemia
Experimental: as §1

[31] = test system: RXF 393; assay: NCI-60 screen; format: cell-based; settings: Homo sapiens, Renal Cancer
Experimental: as §1

[32] = molecular target: bovine brain tubulin (Bos taurus, UniProt P81947+Q6B856); assay: Inhibition of tubulin assembly (turbidimetry); format: biochemical; settings: 9 μM (0.9 mg/mL) tubulin, 20 min at 30 °C; read-out: inhibition of tubulin assembly IC50 ± SD
[33] = test system: HeLa cells; assay: Flow cytometric cell cycle distribution; format: cell-based; settings: 24 h
Experimental: To evaluate the effects of compounds 63, 66, and 75 on cell cycle progression, we first treated HeLa cells for 24 h.The cells were then labeled with propidium iodide (PI) and analyzed by flow cytometry. As shown in Figure 5 (panel B), compound 66 induced arrest of the cell cycle in the G2/M phase.
5 ×10^5 HeLa cells were treated with different concentrations of the test compounds for 24 h. After the incubation period, the cells were collected, centrifuged, and fixed with ice-cold ethanol (70%). The cells were treated with lysis buffer containing RNase A and 0.1% Triton X-100 and stained with PI. Samples were analyzed on a Cytomic FC500 flow cytometer (Beckman Coulter). DNA histograms were analyzed using MultiCycle for Windows (Phoenix Flow Systems).

[34] = test system: A549/ATCC; assay: NCI-60 screen; format: cell-based; settings: Homo sapiens, Non-Small-Cell Lung Cancer
Experimental: as §1

[35] = test system: SK-MEL-2; assay: NCI-60 screen; format: cell-based; settings: Homo sapiens, Melanoma
Experimental: as §1

[36] = test system: human peripheral blood lymphocytes stimulated with PHA; assay: Cytotoxicity in PHA-stimulated PBLs (MTT); format: cell-based; settings: Lymphocyte, 72 h, mean ± SEM, three experiments, read-out: GI50 PBLPHA
Experimental: (§2) PBLs were obtained from human peripheral blood (leucocyte rich plasma-buffy coats) from healthy volunteers using the Lymphoprep (Fresenius KABI Norge AS) gradient density centrifugation.
(§3) After extensive washing, cells were resuspended (1.0 × 10^6 cells/mL) in RPMI-1640 with 10% fetal bovine serum and incubated overnight. For cytotoxicity evaluations in proliferating PBL cultures, nonadherent cells were resuspended at 5 × 10^5 cells/mL in growth medium, containing 2.5 μg/mL PHA (Irvine Scientific). Different concentrations of the test compounds were added, and viability was determined 72 h later by the MTT test. For cytotoxicity evaluations in resting PBL cultures, nonadherent cells were resuspended (5 × 10^5 cells/mL) and treated for 72 h with the test compounds.

[37] = test system: human peripheral blood lymphocytes not stimulated with PHA; assay: Cytotoxicity in resting PBLs (MTT); format: cell-based; settings: Lymphocyte, 72 h, mean ± SEM, three experiments, read-out: GI50 PBLresting
Experimental: as §2, §3

[38] = molecular target: tubulin colchicine site (Bos taurus, UniProt P81947+Q6B856); assay: Inhibition of [3H]colchicine binding to tubulin; settings: read-out: inhibition of colchicine binding % inhibition ± SD
tubulin colchicine site, sequence (Q6B856 whole entry): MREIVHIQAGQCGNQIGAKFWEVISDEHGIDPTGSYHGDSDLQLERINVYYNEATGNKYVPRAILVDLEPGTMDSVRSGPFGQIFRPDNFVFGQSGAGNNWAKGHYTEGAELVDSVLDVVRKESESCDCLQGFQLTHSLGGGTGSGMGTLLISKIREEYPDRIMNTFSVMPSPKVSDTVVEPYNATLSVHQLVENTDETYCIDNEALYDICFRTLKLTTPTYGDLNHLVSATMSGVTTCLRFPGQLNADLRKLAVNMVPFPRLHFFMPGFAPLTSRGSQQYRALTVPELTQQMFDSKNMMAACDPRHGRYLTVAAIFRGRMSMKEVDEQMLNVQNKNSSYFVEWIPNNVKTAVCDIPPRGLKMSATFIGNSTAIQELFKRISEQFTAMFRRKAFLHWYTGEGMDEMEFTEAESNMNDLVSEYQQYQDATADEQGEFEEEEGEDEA
tubulin colchicine site, sequence (P81947 whole entry): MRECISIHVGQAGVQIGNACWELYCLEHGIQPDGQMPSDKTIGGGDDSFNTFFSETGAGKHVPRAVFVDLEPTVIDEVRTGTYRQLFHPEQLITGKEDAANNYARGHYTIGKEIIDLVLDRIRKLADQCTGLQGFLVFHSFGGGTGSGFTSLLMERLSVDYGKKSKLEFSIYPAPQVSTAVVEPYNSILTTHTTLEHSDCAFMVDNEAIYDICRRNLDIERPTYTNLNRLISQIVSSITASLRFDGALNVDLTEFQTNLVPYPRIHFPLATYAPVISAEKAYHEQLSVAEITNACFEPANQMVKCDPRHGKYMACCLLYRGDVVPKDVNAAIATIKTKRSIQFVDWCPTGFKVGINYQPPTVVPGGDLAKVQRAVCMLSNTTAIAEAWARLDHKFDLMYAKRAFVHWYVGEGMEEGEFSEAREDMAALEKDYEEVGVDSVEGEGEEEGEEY
Experimental: Reaction mixtures in the assembly assay contained 9 μM (0.9 mg/mL) tubulin in the assembly assay, and in the colchicine assay they contained 0.5 μM tubulin, 5.0 μM [^3H]colchicine, and 5.0 μM inhibitor.
Analysis of effects on tubulin polymerization was performed by turbidimetry at 350 nm in recording spectrophotometers equipped with electronic temperature controllers as described in detail elsewhere.[71] […] The binding of [^3H]colchicine to tubulin was perfomed as described in detail previously[72] except that the tubulin concentration was reduced from 0.1 mg/mL to 0.05 mg/mL and only one, instead of two, DEAE-cellulose filter was used for each reaction mixture.

bovine brain tubulin, sequence (Q6B856 whole entry): as the sequence (Q6B856 whole entry) above
bovine brain tubulin, sequence (P81947 whole entry): as the sequence (P81947 whole entry) above

| SMILES | GI50 [5] [nM] | GI50 [6] [nM] | GI50 [7] [nM] | GI50 [8] [nM] | GI50 [9] [nM] | GI50 [10] [nM] | GI50 [11] [nM] | GI50 [12] [nM] | GI50 [13] [nM] | GI50 [14] [nM] | GI50 [15] [nM] | GI50 [17] [nM] | GI50 [18] [nM] | GI50 [19] [nM] | GI50 [20] [nM] | GI50 [21] [nM] | GI50 [23] [nM] | GI50 [24] [nM] | GI50 [25] [nM] | GI50 [26] [nM] | other results |
| --- | --- | --- | --- | --- | --- | --- | --- | --- | --- | --- | --- | --- | --- | --- | --- | --- | --- | --- | --- | --- | --- |
| CCOC(=O)c1cc2c(n1Cc1ccccc1OC)-c1oncc1CCC2 [Compound 62, Ethyl 9-(2-Methoxybenzyl)-4,5,6,9-tetrahydropyrrolo[2′,3′:3,4]cyclohepta[1,2-d][1,2]oxazole-8-carboxylate] | 2240 | 9350 | > 100000 | 2480 | 3850 | > 100000 | 7730 | > 100000 | 2020 | 1990 | 1380 | 1970 | 6530 | > 100000 | 67800 | 2700 | 2950 | 3040 | 3510 | 3380 | GI50 [1]: 8520 nM; GI50 [2]: 2460 nM; GI50 [3]: 5230 nM; GI50 [4]: 3080 nM; GI50 [16]: 3780 nM; GI50 [22]: 300 nM; GI50 [27]: 910 nM; GI50 [28]: 1890 nM; GI50 [29]: > 100000 nM; GI50 [30]: 4110 nM; GI50 [31]: 2080 nM |
| CCOC(=O)c1cc2c(n1Cc1cccc(OC)c1)-c1oncc1CCC2 [Compound 63, Ethyl 9-(3-Methoxybenzyl)-4,5,6,9-tetrahydropyrrolo[2′,3′:3,4]cyclohepta[1,2-d][1,2]oxazole-8-carboxylate] | 450 | 18700 | 6740 | 1140 | 3130 | 4180 | 980 | 3510 | 480 | 1160 | 620 | 1600 | 3370 | 5940 | 11200 | 2830 | 340 | 530 | 2310 | 1600 | IC50 [32]: 6300 ± 60 nM; concentration at which G2/M arrest first occurred [33]: 1 µM; GI50 [2]: 2000 nM; GI50 [4]: 890 nM; GI50 [22]: 4210 nM; GI50 [34]: 760 nM; GI50 [35]: 560 nM; GI50 [27]: 360 nM; GI50 [28]: 4340 nM; GI50 [29]: 5120 nM; GI50 [30]: 1890 nM; GI50 [31]: 670 nM; GI50 [36]: > 100000 nM; GI50 [37]: > 100000 nM |
| CCOC(=O)c1cc2c(n1Cc1cc(OC)cc(OC)c1)-c1oncc1CCC2 [Compound 66, Ethyl 9-(3,5-Dimethoxybenzyl)-4,5,6,9-tetrahydropyrrolo[2′,3′:3,4]cyclohepta[1,2-d][1,2]oxazole-8-carboxylate] | 40 | 13400 | 50 | 30 | 80 | 230 | 1720 | 70 | 40 | 60 | 30 | 30 | 50 | 180 | > 100000 | 50 | 30 | 30 | 50 | 40 | inhibition at 5 µM [38]: 62 ± 2%; IC50 [32]: 2600 ± 30 nM; concentration at which G2/M arrest first occurred [33]: 0.125 µM; cells arrested in G2/M ([33]; 0.5 μM): over 80%; GI50 [34]: 60 nM; GI50 [35]: 40 nM; GI50 [27]: 30 nM; GI50 [29]: 90 nM; GI50 [30]: 50 nM; GI50 [31]: 20 nM; GI50 [36]: > 100000 nM; GI50 [37]: > 100000 nM |
